According to patent publication US20240415859A1, “USE OF ISORHOIFOLIN AND DERIVATIVE THEREOF IN PROMOTING NERVE REPAIR” (priority 2021, published 2024):

Columns and labels:
[1] = tested on: retinal explants; test: Ex vivo retinal explant neuronal tissue repair; assay type: cell-based, C57BL/6 mice; details: P8 mouse retinal explants, 9 μM or 90 μM, five days, vs ddH2O
Protocol: Retinal explants were obtained from C57BL/6 mice at postnatal day 8. Following the sacrifice of mice, the eyes were enucleated, and the eyeballs were dissected using forceps and microscissors to separate the retina and remove the vitreous. Subsequently, the dissected retinas were quartered and trimmed along the edges of the tissue using microscissors. Each quarter was cultured on an 18 mm round coverslip and placed in a 12-well plate inside a CO2 incubator at 35° C. for five days. The culture medium was replaced daily with fresh medium containing either 9 μM or 90 μM Isorhoifolin. On the fifth day of culture, the retinal tissues were fixed with a mixture of 0.1% glutaraldehyde solution and 4% paraformaldehyde at room temperature for one hour. Immunostaining was performed using primary antibodies against the axonal marker beta-III-tubulin (TUJ1) and DAPI to label neurons and cell nuclei, respectively. Images were acquired using a super-resolution upright confocal microscope (LSM-800, Carl Zeiss). ImageJ software was utilized for image analysis, wherein the tissue boundary was delineated to calculate the perimeter and the area of neuronal fibers outside the tissue boundary. The ratio of neuronal fiber area to tissue boundary perimeter was then calculated to determine the unit perimeter neuronal fiber length.

[2] = tested on: Neuro2a cells; test: CellTiter-Glo cell viability assay (cytotoxicity); assay type: cell-based
Source text: Utilizing the CellTiter-Glo cell viability assay to assess the toxicity of Isorhoifolin on Neuro2a cells. CellTiter-Glo cell viability assay can detect the level of ATP in neuro2a cells after treatment of compounds to evaluate the survival rate.

[3] = tested on: injured brain sections; test: Ex vivo 3D brain tissue slice culture, scalpel injury; assay type: cell-based; details: E18 rat brain slices 350 μm, added every day, 96 hours, vs ddH2O
Source text: For the experiment, we took out the brain of E18 rat embryos and embedded in low-melting agarose. The brains were sectioned using Leica microtome VT100. The tissue sections were collected with 350 μm thick and injured using a scalpel. And placed them in inserts within a 6-well plate. This culturing method allows the brain slices to be exposed to both medium and air, facilitating a more realistic representation of the interactions between neuronal cells and other brain cells, as well as the three-dimensional structure, compared to in vitro culture. ddH2O or Isorhoifolin was added to injured brain sections every day. After 96 hours, immunostaining was performed. TUJ1 antibody was used to label neuron cells. GFAP antibody was used to label glial cells. DAPI was used to label nucleus. The experimental procedure for the Isorhoifolin derivative Narirutin is also depicted in FIG. 6. Took out the brain of E18 rat embryos and embedded in low-melting agarose. The brains were sectioned using Leica microtome VT100. The tissue sections were collected with 350 μm thick and injured using a scalpel. And placed them in inserts within a 6-well plate. […]

[4] = tested on: motor coordination after brain injury; test: Controlled cortical impact (CCI) brain injury model, horizontal bar test; assay type: in vivo; details: mice, 14 or 140 μg/kg intranasal at 0, 2, 4, 6, 8, 10, 12 Dpi, tested 1, 3, 6, 10, 13 Dpi, vs ddH2O and Sham
Protocol: Using the horizontal bar test, mice were placed on brass rods positioned at a height of 49 cm above the ground, with lengths of 38 cm and diameters of 2 mm, 4 mm, and 6 mm. Mice were required to grasp the brass rod with their forepaws, and their ability to move and coordinate was assessed by measuring the time spent on the brass rod and whether they reached the platform at the end of the rod. Evaluation criteria were as follows: 1 point for 1-5 seconds, 2 points for 5-10 seconds, 3 points for 10-20 seconds, 4 points for 20-30 seconds, and 5 points for over 30 seconds or reaching the platform. The experimental model, as depicted in FIG. 10, involved pre-training at −5, −3, and −1 days post injury (Dpi) (5, 3, and 1 day(s) before brain injury). At 0 Dpi, the controlled cortical impact model (CCI model) was used to induce brain injury in mice. Subsequently, at 0, 2, 4, 6, 8, 10, and 12 Dpi, mice were administered Isorhoifolin at doses of 14 or 140 μg/kg via intranasal delivery. Horizontal bar experiments were conducted at 1, 3, 6, 10, and 13 Dpi.

[5] = tested on: hippocampal neurons; test: In vitro neural repair assay, injured hippocampal neurons (gap closure rate); assay type: cell-based; details: E18 rat hippocampal neurons, 72 hours
Protocol: The experimental procedure is as depicted in FIG. 1. Removed the brain of E18 rat embryos and dissected into cortex and hippocampus. Subsequently, the cortex and hippocampus were separated into cortical neurons and hippocampal neurons, respectively. Then, seeded hippocampal neurons on 48-well plates. The first day that neurons are cultured in vitro is defined as day in vitro 0 (DIV0). On DIV2, Cytosine beta-D-arabinoside (AraC) was added to neurons to inhibit the proliferation of glial cells. On DIV8, neurons were injured using pipette tips (p10 tips) and various concentrations of Isorhoifolin was added. After 72 hours, immunostaining was performed. TUJ1 antibody was used to label neuronal cells to observe the regrowth of neurites. Images were taken using Observer Z1 microscope. As depicted in FIG. 2, the degree of neuronal axon regeneration was quantified using the gap closure rate. White dashed lines indicate the borders of injury gap, the central black area represents the region scratched by the tip of a pipette tips. The newly regenerated neurites grow from the white dashed lines toward the center of the gap. To quantify the results, we measured the lengths of gap (Lg) and distance between regenerated neurites (Ln) every 50 μm. […] Gap closure rate is calculated using the formula: (Lg−Ln)/Lg. […]

[6] = tested on: cortical neurons; test: In vitro neural repair assay, injured cortical neurons (gap closure rate); assay type: cell-based; details: E18 rat cortical neurons, injured DIV8, 10 nM and 100 nM, 72 hours, standardized against 0.1% DMSO
Source text: As depicted in FIG. 2, the degree of neuronal axon regeneration was quantified using the gap closure rate. White dashed lines indicate the borders of injury gap, the central black area represents the region scratched by the tip of a pipette tips. The newly regenerated neurites grow from the white dashed lines toward the center of the gap. To quantify the results, we measured the lengths of gap (Lg) and distance between regenerated neurites (Ln) every 50 μm. After unbiasedly drawing ten lines of equal distance, the average distance between neurites is taken: Length of gap between regenerated neurons (Ln). Gap closure rate is calculated using the formula: (Lg−Ln)/Lg. Scale bar=100 μm. Images were taken using Observer Z1 microscope. The experimental procedure is also as depicted in FIG. 1. Removed the brain of E18 rat embryos and dissected into cortex and hippocampus. Subsequently, the cortex and hippocampus were separated into cortical neurons and hippocampal neurons, respectively. Then, seeded cortical neurons on 48-well plates. The first day that neurons are cultured in vitro is defined as day in vitro 0 (DIV0). On DIV2, Cytosine beta-D-arabinoside (AraC) was added to neurons to inhibit the proliferation of glial cells. On DIV8, neurons were injured using pipette tips (p10 tips) and 10 nM and 100 nM Narirutin was added. […]

| Molecule | recovery of injured retinal neurons (unit perimeter neuronal fiber length) [1] | toxicity towards Neuro2a cells [2] | IC50 ([2]; Mus musculus, N2a, CellTiter-Glo, read-out: IC50 (cell viability, ATP level)) [mM] | neurite outgrowth after injury in ex vivo 3D brain slice culture [3] | motor coordination recovery (horizontal bar test score) [4] | neurite regrowth after injury (gap closure rate) ([5]; injured DIV8, various concentrations, TUJ1 staining) | neurite regeneration after injury (gap closure rate) ([5]; injured DIV8, 1 nM and 10 nM, standardized against 0.1% DMSO) | neurite regeneration after injury (gap closure rate) [6] |
| --- | --- | --- | --- | --- | --- | --- | --- | --- |
| C[C@@H]1O[C@@H](OC[C@H]2O[C@@H](Oc3cc(O)c4c(=O)cc(-c5ccc(O)cc5)oc4c3)[C@H](O)[C@@H](O)[C@@H]2O)[C@H](O)[C@H](O)[C@H]1O [Isorhoifolin] | significant recovery of injured retinal neurons | low toxicity | ~11.6 | promotes neurite outgrowth after injury in ex vivo 3D brain slice culture | motor coordination was similar to that of the Sham (surgery control) group | promotes neurite regrowth after injury in hippocampal neurons | – | – |
| Narirutin | – | – | – | promotes neurite outgrowth after injury in ex vivo 3D brain slice culture | – | – | effectively promotes dendritic outgrowth in hippocampal neurons | effectively promotes dendritic outgrowth in cortical neurons |
